Consider four compounds from ChEMBL document CHEMBL5465560, “Selectivity Literature for EUbOPEN Chemogenomic Library” (2024).

SMILES strings stand for the structures.

Test [1] deals with T1, Myotonin-protein kinase (Homo sapiens) (UniProt Q09013).
T1 sequence (whole entry): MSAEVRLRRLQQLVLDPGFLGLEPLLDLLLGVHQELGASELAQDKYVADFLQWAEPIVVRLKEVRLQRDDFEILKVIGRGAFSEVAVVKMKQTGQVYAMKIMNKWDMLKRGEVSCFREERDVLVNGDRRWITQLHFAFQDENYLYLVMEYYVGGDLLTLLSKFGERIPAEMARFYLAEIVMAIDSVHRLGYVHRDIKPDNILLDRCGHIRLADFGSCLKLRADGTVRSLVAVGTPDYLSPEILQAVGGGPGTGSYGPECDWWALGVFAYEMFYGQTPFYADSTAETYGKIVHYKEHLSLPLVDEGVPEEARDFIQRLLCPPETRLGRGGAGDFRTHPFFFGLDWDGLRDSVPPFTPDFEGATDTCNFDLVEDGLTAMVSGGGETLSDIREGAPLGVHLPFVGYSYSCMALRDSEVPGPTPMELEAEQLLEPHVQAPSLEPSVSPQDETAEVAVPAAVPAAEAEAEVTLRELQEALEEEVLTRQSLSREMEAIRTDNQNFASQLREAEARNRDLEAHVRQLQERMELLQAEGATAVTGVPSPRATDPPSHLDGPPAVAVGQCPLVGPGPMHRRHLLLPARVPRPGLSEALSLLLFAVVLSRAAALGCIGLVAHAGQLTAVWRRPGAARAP
The experiment in a line: Selectivity interaction (Ambit KINOMEscan and KiNATiv profiling in Jurkat cells) EUB0000090b DMPK. The settings on record: at 1 µM. The format is cell-based.

Test [2] has as its system Proto-oncogene tyrosine-protein kinase receptor Ret (Homo sapiens), P07949 [Y791F]. The experiment in a line: (§1) Selectivity interaction (SelectScreen profiling (Invitrogen)) EUB0000607a RET. To be noted: at 2 µM.
In test [3] the target is Proto-oncogene tyrosine-protein kinase receptor Ret (Homo sapiens, UniProt P07949). Described as §1. To be noted: at 2 µM.
Test [4] relates to Proto-oncogene tyrosine-protein kinase receptor Ret (Homo sapiens), P07949 [V804L]. The description is as §1. The settings on record: at 2 µM.
The target of test [5] is T2, Tyrosine-protein kinase JAK3 (Homo sapiens, UniProt P52333).
T2 sequence (P52333 whole entry): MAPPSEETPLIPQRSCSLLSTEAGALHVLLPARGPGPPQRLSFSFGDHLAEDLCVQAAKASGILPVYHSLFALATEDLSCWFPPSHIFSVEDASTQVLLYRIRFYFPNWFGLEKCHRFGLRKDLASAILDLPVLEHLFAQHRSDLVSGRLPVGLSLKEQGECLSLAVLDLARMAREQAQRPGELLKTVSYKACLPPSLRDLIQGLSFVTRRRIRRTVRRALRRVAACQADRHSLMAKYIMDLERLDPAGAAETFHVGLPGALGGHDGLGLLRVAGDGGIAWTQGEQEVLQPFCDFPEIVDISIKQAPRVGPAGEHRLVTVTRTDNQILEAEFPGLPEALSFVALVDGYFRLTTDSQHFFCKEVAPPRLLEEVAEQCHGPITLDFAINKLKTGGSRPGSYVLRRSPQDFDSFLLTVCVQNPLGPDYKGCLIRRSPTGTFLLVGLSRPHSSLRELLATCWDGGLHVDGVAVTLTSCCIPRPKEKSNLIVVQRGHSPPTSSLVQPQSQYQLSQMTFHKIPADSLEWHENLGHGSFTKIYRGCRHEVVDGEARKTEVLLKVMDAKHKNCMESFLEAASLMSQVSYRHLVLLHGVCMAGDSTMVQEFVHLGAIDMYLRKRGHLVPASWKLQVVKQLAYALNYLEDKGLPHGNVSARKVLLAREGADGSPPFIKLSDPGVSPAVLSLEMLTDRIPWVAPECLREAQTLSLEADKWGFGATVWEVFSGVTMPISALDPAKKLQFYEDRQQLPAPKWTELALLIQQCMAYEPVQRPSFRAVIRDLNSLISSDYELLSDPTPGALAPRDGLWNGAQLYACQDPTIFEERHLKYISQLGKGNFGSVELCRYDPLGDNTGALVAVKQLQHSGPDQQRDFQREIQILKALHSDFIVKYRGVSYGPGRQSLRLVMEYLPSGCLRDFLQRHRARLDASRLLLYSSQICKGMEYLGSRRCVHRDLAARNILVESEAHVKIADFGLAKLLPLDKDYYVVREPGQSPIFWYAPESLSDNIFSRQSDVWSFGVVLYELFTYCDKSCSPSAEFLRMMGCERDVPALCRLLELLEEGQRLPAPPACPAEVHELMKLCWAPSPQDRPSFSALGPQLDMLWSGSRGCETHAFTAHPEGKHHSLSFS
Put plainly: Selectivity interaction (Kinase panel (33PanQinase(R) Activity Assay)) EUB0000877a JAK3.

The target of test [6] is T3, Serine/threonine-protein kinase BRSK1 (Homo sapiens) (UniProt Q8TDC3).
T3 sequence (whole entry): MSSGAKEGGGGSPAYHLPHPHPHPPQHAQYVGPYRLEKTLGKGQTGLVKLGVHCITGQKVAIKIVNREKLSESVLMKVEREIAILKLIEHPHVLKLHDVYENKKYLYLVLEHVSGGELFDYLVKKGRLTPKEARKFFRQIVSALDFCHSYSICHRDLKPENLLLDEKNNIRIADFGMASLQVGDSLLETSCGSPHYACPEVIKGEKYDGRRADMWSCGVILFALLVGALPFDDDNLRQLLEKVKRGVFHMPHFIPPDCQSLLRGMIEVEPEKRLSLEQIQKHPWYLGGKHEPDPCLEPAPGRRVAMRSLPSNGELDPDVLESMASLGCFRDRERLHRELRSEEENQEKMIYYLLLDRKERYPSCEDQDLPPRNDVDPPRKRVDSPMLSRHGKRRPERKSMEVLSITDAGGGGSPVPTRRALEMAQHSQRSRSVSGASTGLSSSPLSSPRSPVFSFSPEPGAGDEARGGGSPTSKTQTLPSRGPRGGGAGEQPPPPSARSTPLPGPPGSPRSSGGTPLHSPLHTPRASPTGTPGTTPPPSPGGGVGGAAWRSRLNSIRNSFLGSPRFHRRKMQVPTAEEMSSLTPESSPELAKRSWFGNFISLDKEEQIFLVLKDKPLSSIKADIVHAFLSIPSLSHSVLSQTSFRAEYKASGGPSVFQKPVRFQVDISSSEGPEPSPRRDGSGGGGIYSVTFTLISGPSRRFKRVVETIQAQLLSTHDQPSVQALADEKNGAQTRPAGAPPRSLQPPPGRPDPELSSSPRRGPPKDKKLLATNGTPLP
Put plainly: Selectivity interaction (KinomeScan (DiscoverX)) EUB0000092b BRSK1. To be noted: at 10 µM.

Proto-oncogene tyrosine-protein kinase receptor Ret (Homo sapiens), P07949 [Y791F], sequence (P07949 whole entry Y791F): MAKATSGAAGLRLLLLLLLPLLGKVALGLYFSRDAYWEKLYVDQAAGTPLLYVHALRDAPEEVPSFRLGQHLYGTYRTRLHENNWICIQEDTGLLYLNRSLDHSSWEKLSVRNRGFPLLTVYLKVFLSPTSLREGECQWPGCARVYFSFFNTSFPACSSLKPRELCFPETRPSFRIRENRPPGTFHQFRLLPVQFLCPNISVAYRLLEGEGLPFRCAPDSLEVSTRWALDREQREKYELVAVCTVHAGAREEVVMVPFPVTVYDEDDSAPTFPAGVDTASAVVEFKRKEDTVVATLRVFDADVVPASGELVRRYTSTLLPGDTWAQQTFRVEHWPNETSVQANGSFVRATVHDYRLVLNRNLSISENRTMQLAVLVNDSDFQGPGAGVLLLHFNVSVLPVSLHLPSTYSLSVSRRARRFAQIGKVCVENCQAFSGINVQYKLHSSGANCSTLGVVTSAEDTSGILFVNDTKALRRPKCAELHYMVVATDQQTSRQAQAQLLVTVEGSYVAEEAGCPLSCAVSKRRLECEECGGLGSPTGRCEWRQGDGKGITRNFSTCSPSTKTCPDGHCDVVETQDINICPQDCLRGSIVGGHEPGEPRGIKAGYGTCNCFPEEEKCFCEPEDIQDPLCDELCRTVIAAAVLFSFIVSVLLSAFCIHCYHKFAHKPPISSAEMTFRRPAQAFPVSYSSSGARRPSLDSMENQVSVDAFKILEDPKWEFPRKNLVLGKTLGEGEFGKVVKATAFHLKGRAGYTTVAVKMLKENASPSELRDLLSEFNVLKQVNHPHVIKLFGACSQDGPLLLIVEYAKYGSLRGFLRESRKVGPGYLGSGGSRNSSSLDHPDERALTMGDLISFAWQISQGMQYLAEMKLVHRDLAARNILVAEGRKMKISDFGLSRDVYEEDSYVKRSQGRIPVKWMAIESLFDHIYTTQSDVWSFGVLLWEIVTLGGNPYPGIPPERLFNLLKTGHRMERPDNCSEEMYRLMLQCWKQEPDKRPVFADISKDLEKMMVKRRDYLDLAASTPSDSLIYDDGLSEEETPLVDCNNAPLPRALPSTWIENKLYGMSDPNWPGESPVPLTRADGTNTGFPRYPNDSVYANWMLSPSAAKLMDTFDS
Proto-oncogene tyrosine-protein kinase receptor Ret (Homo sapiens), P07949 [V804L], sequence (P07949 whole entry V804L): as the sequence (P07949 whole entry Y791F) above, with F791Y, V804L counted along it
Proto-oncogene tyrosine-protein kinase receptor Ret, sequence (P07949 whole entry): as the sequence (P07949 whole entry Y791F) above, with F791Y counted along it

Take `CN(C)C/C=C/C(=O)Nc1ccc(C(=O)N2CCCC(Nc3ncc(Cl)c(-c4c[nH]c5ccccc45)n3)C2)cc1` (stereo unspecified): in test [1], the % of control stood at 91%.

Take `CNC(=O)Nc1ccc(-c2nc(N3CC4CCC(C3)O4)c3cnn(C4CCC5(CC4)OCCO5)c3n2)cc1`: the % of inhibition in test [2] is 2%; in test [3], 4%; in test [4], 2%.

Regarding `CCC(=O)N1CC[C@H](Nc2ncnc3c2CN(c2cnc(OC)c(C(F)(F)F)c2)CC3)C1` [LENIOLISIB], the IC50 (commonly the concentration that gives 50% inhibition) in test [5] was above 10 µM.

Consider `CCC(=O)N1CCN(c2ccc(-n3c(=O)ccc4cnc5ccc(-c6cnc7ccccc7c6)cc5c43)cc2C(F)(F)F)CC1`, for which, in test [6], the % of control is 78%.
